Laboratory results as given in patent US11000033B2, “Ketone or oxime compound, and herbicide” (NISSAN CHEMICAL CORPORATION, priority 2014, dated 2021).

Tests used:
Type in all cases: in vivo
Setaria viridis = assay: Test Example 5: herbicidal effect by foliage application, plastic box (symbol G); details: 320 g/ha, 3 weeks after application
Method in brief: (§1)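 After sowing into sterilized diluvial soil and growing two weeks under glass at 25° C. to 30° C., seedlings receive a uniform foliar spray of diluted emulsion. Damage is judged visually three weeks on.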

transplanted rice plant = assay: Test Example 1: effect on crop, application before weed generation in submerged conditions (symbol a); details: application herbicide amount 320 g/ha
Method in brief: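 Alluvial soil pots flooded to 4 cm water, sown with Echinochloa oryzacola, Scirpus juncoides and Monochoria vaginalis, then transplanted with 2.5 leaf stage rice seedlings; pre-emergence application. Greenhouse 25° C. to 30° C.; scored 0–5 by herbicidal ratio 3 weeks after application.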

Galium spurium = assay: Test Example 4: herbicidal effect by soil treatment (symbol Q)
Method in brief: (§2)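 Seeds were sown in sterilized diluvial soil, covered with about 1.5 cm of soil, and the soil surface was sprayed with a water-diluted emulsion of the compound at a predetermined rate. Plants grew in a greenhouse at 25° C. to 30° C.; effects were scored visually 3 weeks after application.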

Monochoria vaginalis = assay: Test Example 2: herbicidal activity, application during weed generation in submerged conditions (symbol C); details: Table 23; application herbicide amount 320 g/ha; grade 0-5 by criteria of Test Example 1
Method in brief: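 Scoring of herbicidal effect took place 3 weeks after treatment, using the criteria of the earlier test. Treatment was water-surface application of diluted emulsifiable compound at a set dose. Plants were at one- to two-leaf stage in submerged alluvial soil (4 cm depth), greenhouse 25-30° C.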

Stellaria media [1] = assay: Test Example 4: herbicidal effect by soil treatment (symbol P)
Method in brief: as §2

Stellaria media [2] = assay: Test Example 5: herbicidal effect by foliage application, plastic box (symbol P); details: 320 g/ha, 3 weeks after application
Method in brief: as §1

rice = assay: Test Example 4: effect on crop by soil treatment (symbol b); details: for b: directly sowed rice plant, effect grade on crop: 320 g/ha
Method in brief: (§3)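 Crop seeds, among them rice, wheat, beet and rapeseed, were sown in sterilized diluvial soil and covered with about 1.5 cm of soil. Boxes were kept in a greenhouse at 25° C. to 30° C. for plant growth.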

Avena fatua = assay: Test Example 5: herbicidal effect by foliage application, plastic box (symbol I); details: 320 g/ha, 3 weeks after application
Method in brief: as §1

Abutilon theophrasti = assay: Test Example 5: herbicidal effect by foliage application, plastic box (symbol M); details: 320 g/ha, 3 weeks after application
Method in brief: as §1

rice plant = assay: Test Example 5: effect on crop by foliage application, plastic box (symbol b); details: 320 g/ha, 3 weeks after application
Method in brief: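 Greenhouse test at 25° C. to 30° C. Seeds of crops and weeds were spot-sown in boxes of sterilized diluvial soil under roughly 1.5 cm soil cover, then grown for foliage treatment.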

Amaranthus retroflexus = assay: Test Example 4: herbicidal effect by soil treatment (symbol N)
Method in brief: as §2

beet = assay: Test Example 4: effect on crop by soil treatment (symbol f); details: for f: beet, effect grade on crop: 320 g/ha
Method in brief: as §3

[3] = test system: Echinochloa crus-galli var. crus-galli; assay: Test Example 4: herbicidal effect by soil treatment (symbol H)
Method in brief: as §2

Digitaria ciliaris = assay: Test Example 5: herbicidal effect by foliage application, plastic box (symbol F); details: 320 g/ha, 3 weeks after application
Method in brief: as §1

[4] = application herbicide amount 320 g/ha

Row | Structure (SMILES) | G: Setaria viridis, herbicidal effect (criteria 0-5) (Setaria viridis) | Effect grade on crop, a: transplanted rice plant (transplanted rice plant) | Q: Galium spurium, herbicidal effect grade (Galium spurium; 320 g/ha) | Herbicidal effect grade, C: Monochoria vaginalis (Monochoria vaginalis) | P: Stellaria media, herbicidal effect grade (Stellaria media [1]; 320 g/ha) | P: Stellaria media, herbicidal effect (criteria 0-5) (Stellaria media [2]) | b: directly sowed rice plant, effect grade on crop (rice) | I: Avena fatua, herbicidal effect (criteria 0-5) (Avena fatua) | M: Abutilon theophrasti, herbicidal effect (criteria 0-5) (Abutilon theophrasti) | b: directly sowed rice plant, effect on crop (criteria 0-5) (rice plant) | N: Amaranthus retroflexus, herbicidal effect grade (Amaranthus retroflexus; 320 g/ha) | f: beet, effect grade on crop (beet) | H: Echinochloa crus-galli var. crus-galli, herbicidal effect grade ([3]; 320 g/ha) | F: Digitaria ciliaris, herbicidal effect (criteria 0-5) (Digitaria ciliaris) | also measured
1 | COc1ccc(CON=C(C)CC2CC(O)=C(c3c(C)cc(C)cc3C)C2=O)cc1 (stereo not shown) [1-112] | 4 (Herbicidal ratio of 70% or higher and lower than 90%) | 5 (Herbicidal ratio of 90% or more (almost completely withered)) | 0 (Herbicidal ratio of 5% or lower (almost no effect)) | 4 (Herbicidal ratio of 70% or higher and lower than 90%) | 0 (Herbicidal ratio of 5% or lower (almost no effect)) | 1 (Herbicidal ratio of 5% or higher and lower than 20%) | 5 (Herbicidal ratio of 90% or more (almost completely withered)) | 5 (Herbicidal ratio of 90% or more (almost completely withered)) | 1 (Herbicidal ratio of 5% or higher and lower than 20%) | 5 (Herbicidal ratio of 90% or more (almost completely withered)) | 0 (Herbicidal ratio of 5% or lower (almost no effect)) | 0 (Herbicidal ratio of 5% or lower (almost no effect)) | 4 (Herbicidal ratio of 70% or higher and lower than 90%) | 5 (Herbicidal ratio of 90% or more (almost completely withered)) | –
2 | CON=C(CC1CC(OC(=O)C(C)(C)C)=C(c2c(C)cc(C)cc2OC)C1=O)C1CC1 (mixture of isomers) [13-006] | – | – | – | 4 (Herbicidal ratio of 70% or higher and lower than 90%) | – | – | – | – | – | – | – | – | – | – | G: Setaria viridis, herbicidal effect grade (Setaria viridis): 5 (Herbicidal ratio of 90% or more (almost completely withered)); a (transplanted rice plant) effect on crop grade (transplanted rice plant): 5 (Herbicidal ratio of 90% or more (almost completely withered)); Q: Galium spurium, herbicidal effect grade (Galium spurium; [4]): 0 (Herbicidal ratio of 5% or lower (almost no effect)); P: Stellaria media, herbicidal effect grade (Stellaria media [1]; [4]): 0 (Herbicidal ratio of 5% or lower (almost no effect)); P: Stellaria media, herbicidal effect grade (Stellaria media [2]): 3 (Herbicidal ratio of 40% or higher and lower than 70%); b: directly sowed rice plant, effect on crop grade (rice; [4]): 5 (Herbicidal ratio of 90% or more (almost completely withered)); I: Avena fatua, herbicidal effect grade (Avena fatua): 5 (Herbicidal ratio of 90% or more (almost completely withered)); M: Abutilon theophrasti, herbicidal effect grade (Abutilon theophrasti): 4 (Herbicidal ratio of 70% or higher and lower than 90%); b: directly sowed rice plant, effect on crop grade (rice plant): 5 (Herbicidal ratio of 90% or more (almost completely withered)); N: Amaranthus retroflexus, herbicidal effect grade (Amaranthus retroflexus; [4]): 0 (Herbicidal ratio of 5% or lower (almost no effect)); f: beet, effect on crop grade (beet; [4]): 0 (Herbicidal ratio of 5% or lower (almost no effect)); H: Echinochloa crus-galli var. crus-galli, herbicidal effect grade [3, 4]: 5 (Herbicidal ratio of 90% or more (almost completely withered)); F: Digitaria ciliaris, herbicidal effect grade (Digitaria ciliaris): 5 (Herbicidal ratio of 90% or more (almost completely withered))
3 | CC(CC1CC(O)=C(c2c(C)cc(C)cc2C)C1=O)=NOC1CCCC1 (stereo not shown) [1-106] | 5 (Herbicidal ratio of 90% or more (almost completely withered)) | 5 (Herbicidal ratio of 90% or more (almost completely withered)) | 0 (Herbicidal ratio of 5% or lower (almost no effect)) | 0 (Herbicidal ratio of 5% or lower (almost no effect)) | 0 (Herbicidal ratio of 5% or lower (almost no effect)) | 2 (Herbicidal ratio of 20% or higher and lower than 40%) | 5 (Herbicidal ratio of 90% or more (almost completely withered)) | 5 (Herbicidal ratio of 90% or more (almost completely withered)) | 1 (Herbicidal ratio of 5% or higher and lower than 20%) | 5 (Herbicidal ratio of 90% or more (almost completely withered)) | 0 (Herbicidal ratio of 5% or lower (almost no effect)) | 0 (Herbicidal ratio of 5% or lower (almost no effect)) | 5 (Herbicidal ratio of 90% or more (almost completely withered)) | 5 (Herbicidal ratio of 90% or more (almost completely withered)) | –
4 | CC(CC1CC(O)=C(c2c(C)cc(C)cc2C)C1=O)=NOCc1ccc(C(F)(F)F)cc1 (stereo not shown) [1-138] | 5 (Herbicidal ratio of 90% or more (almost completely withered)) | 5 (Herbicidal ratio of 90% or more (almost completely withered)) | 0 (Herbicidal ratio of 5% or lower (almost no effect)) | 2 (Herbicidal ratio of 20% or higher and lower than 40%) | 0 (Herbicidal ratio of 5% or lower (almost no effect)) | 1 (Herbicidal ratio of 5% or higher and lower than 20%) | 5 (Herbicidal ratio of 90% or more (almost completely withered)) | 5 (Herbicidal ratio of 90% or more (almost completely withered)) | 3 (Herbicidal ratio of 40% or higher and lower than 70%) | 5 (Herbicidal ratio of 90% or more (almost completely withered)) | 0 (Herbicidal ratio of 5% or lower (almost no effect)) | 0 (Herbicidal ratio of 5% or lower (almost no effect)) | 5 (Herbicidal ratio of 90% or more (almost completely withered)) | 5 (Herbicidal ratio of 90% or more (almost completely withered)) | –
5 | CON=C(C)CC1CC(OC(=O)c2cnoc2C2CC2)=C(c2c(C)cc(C)cc2C)C1=O (stereo not shown) [1-103] | 5 (Herbicidal ratio of 90% or more (almost completely withered)) | 5 (Herbicidal ratio of 90% or more (almost completely withered)) | 0 (Herbicidal ratio of 5% or lower (almost no effect)) | 0 (Herbicidal ratio of 5% or lower (almost no effect)) | 0 (Herbicidal ratio of 5% or lower (almost no effect)) | 2 (Herbicidal ratio of 20% or higher and lower than 40%) | 5 (Herbicidal ratio of 90% or more (almost completely withered)) | 5 (Herbicidal ratio of 90% or more (almost completely withered)) | 4 (Herbicidal ratio of 70% or higher and lower than 90%) | 5 (Herbicidal ratio of 90% or more (almost completely withered)) | 5 (Herbicidal ratio of 90% or more (almost completely withered)) | 0 (Herbicidal ratio of 5% or lower (almost no effect)) | 5 (Herbicidal ratio of 90% or more (almost completely withered)) | 5 (Herbicidal ratio of 90% or more (almost completely withered)) | –
